Drawing on patent US10005774B2, “Syk inhibitors” (Gilead Sciences, Inc., priority 2013, dated 2018), this text covers IC50 for nine compounds.

For orientation: IC50 means the concentration needed to halve the response being measured.

The target in one experiment is Syk (Homo sapiens, UniProt P43405). Briefly: High Throughput Syk Biochemical Assay (KinEASE TR-FRET). Conditions: TABLE D, 20 μM ATP, 1 μM biotinylated peptide, 0.015 nM Syk, 30 min at room temperature, read-out: IC50. The method in brief: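 Two-step endpoint TR-FRET (KinEASE) measured Syk phosphorylation of an XL665-labelled peptide, detected with europium anti-phosphotyrosine antibody. Compounds were serially diluted in DMSO.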
On the technique in general: In TR-FRET formats the signal depends on donor and acceptor labels being close together.
For `C[C@@H](Oc1nc(-c2ccc3scnc3c2)cc2ncn(C)c12)[C@H]1CNC(=O)C1` [(R)-4-((R)-1-((6-(benzo[d]thiazol-5-yl)-3-methyl-3H-imidazo[4,5-c]pyridin-4-yl)oxy)ethyl)pyrrolidin-2-one], the IC50 stood at 30.6 nM.
Same read-out and setting: the result for `C[C@@H](Oc1cc(-c2cccc3scnc23)cc2ncsc12)[C@H]1CNC(=O)C1` [(R)-4-((R)-1-([4,5′-bibenzo[d]thiazol]-7′-yloxy)ethyl)pyrrolidin-2-one] reads 105 nM; that for `Cn1cnc2cc(-c3cnn(C(C)(C)C)c3)nc(O[C@H](CF)[C@H]3CNC(=O)C3)c21` [(R)-4-((S)-1-(6-(1-tert-butyl-1H-pyrazol-4-yl)-3-methyl-3H-imidazo[4,5-c]pyridin-4-yloxy)-2-fluoroethyl)pyrrolidin-2-one], 20.1 nM.
Same read-out and setting: the result for `COC[C@@H](Oc1nc(-c2cnn(C(C)(C)C)c2)cc2ncn(C)c12)[C@H]1CNC(=O)C1` [(R)-4-((S)-1-(6-(1-tert-butyl-1H-pyrazol-4-yl)-3-methyl-3H-imidazo[4,5-c]pyridin-4-yloxy)-2-methoxyethyl)pyrrolidin-2-one] reads 186 nM.
Still for that read-out and setting: the result for `COc1ccc(-c2cc3ncn(C(F)F)c3c(O[C@H](C)[C@H]3CNC(=O)C34CC4)n2)cc1OC` [(R)-7-((R)-1-((3-(difluoromethyl)-6-(3,4-dimethoxyphenyl)-3H-imidazo[4,5-c]pyridin-4-yl)oxy)ethyl)-5-azaspiro[2.4]heptan-4-one] reads 38 nM; that for `C[C@@H](Oc1nc(-c2cnn(C(C)(C)C)c2)cc2ncn(C(F)F)c12)[C@H]1CNC(=O)C12CC2` [(R)-7-((R)-1-((6-(1-(tert-butyl)-1H-pyrazol-4-yl)-3-(difluoromethyl)-3H-imidazo[4,5-c]pyridin-4-yl)oxy)ethyl)-5-azaspiro[2.4]heptan-4-one], 35.1 nM; that for `C[C@@H](Oc1nc(-c2ccc(S(=O)(=O)N(C)C)cc2)cc2ncn(C)c12)[C@H]1CNC(=O)C1` [N,N-dimethyl-4-(3-methyl-4-((R)-1-((R)-5-oxopyrrolidin-3-yl)ethoxy)-3H-imidazo[4,5-c]pyridin-6-yl)benzenesulfonamide], 13.4 nM.
For `C[C@@H](Oc1nc(-c2ccc(N3CCN(C(=O)OC(C)(C)C)CC3)cc2)cc2ncn(C)c12)[C@H]1CNC(=O)C1` [tert-butyl 4-(4-(3-methyl-4-((R)-1-((R)-5-oxopyrrolidin-3-yl)ethoxy)-3H-imidazo[4,5-c]pyridin-6-yl)phenyl)piperazine-1-carboxylate], the IC50 was 18.3 nM.

Still in this experiment, the particulars now being: table 'ALL NEW COMPOUNDS IN 2014', 20 μM ATP, 1 μM biotinylated peptide, 0.015 nM Syk, 30 min at room temperature, read-out: Syk IC50.
For “(R)-4-((R)-1-((3-cyclopropyl-6-(3,4-dimethoxyphenyl)-3H-imidazo[4,5-c]pyridin-4-yl)oxy)ethyl)pyrrolidin-2-one”, the IC50 stood at 6.57 nM.
